The text below walks through data of patent US8716316B2 (Hoffmann-La Roche Inc., priority 2009, dated 2014).

The structures appear in SMILES notation.

The assay has as its target T1, human mGlu5a receptor (Homo sapiens, UniProt P41594).
T1 construct: expressed in transfected cells
Briefly: Intracellular Ca2+ mobilization assay. The format is cell-based. As to conditions: for Emax: HEK293, maximal response in % of the maximal stimulatory effect obtained with saturating concentrations of L-glutamate, HEK-293 human mGlu5a cells, L-glutamate at EC20, read-out: Efficacy (%); for EC50: HEK-293 cells stably transfected with human mGlu5a receptor, pre-incubation 10-30 min with test compound, then L-glutamate at EC20 (typically around 80 μM), Fluo-4AM fluorescence, read-out: EC50 (nM) mGluR5 PAM. On the procedure: A monoclonal HEK-293 cell line stably transfected with a cDNA encoding for the human mGlu5a receptor was generated; for the work with mGlu5 Positive Allosteric Modulators (PAMs), a cell line with low receptor expression levels and low constitutive receptor activity was selected to allow the differentiation of agonistic versus PAM activity. Cells were cultured according to standard protocols (Freshney, 2000) in Dulbecco's Modified Eagle Medium with high glucose supplemented with 1 mM glutamine, 10% (vol/vol) heat-inactivated bovine calf serum, Penicillin/Streptomycin, 50 μg/ml hygromycin and 15 μg/ml blasticidin (all cell culture reagents and antibiotics from Invitrogen, Basel, Switzerland).
About 24 hrs before an experiment, 5×10^4 cells/well were seeded in poly-D-lysine coated, black/clear-bottomed 96-well plates. The cells were loaded with 2.5 μM Fluo-4AM in loading buffer (1×HBSS, 20 mM HEPES) for 1 hr at 37° C. and washed five times with loading buffer. The cells were transferred into a Functional Drug Screening System 7000 (Hamamatsu, Paris, France), and 11 half logarithmic serial dilutions of test compound at 37° C. were added and the cells were incubated for 10-30 min. with on-line recording of fluorescence. Following this pre-incubation step, the agonist L-glutamate was added to the cells at a concentration corresponding to EC20 (typically around 80 μM) with on-line recording of fluorescence; in order to account for day-to-day variations in the responsiveness of cells, the EC20 of glutamate was determined immediately ahead of each experiment by recording of a full dose-response curve of glutamate.
Responses were measured as peak increase in fluorescence minus basal (i.e. fluorescence without addition of L-glutamate), normalized to the maximal stimulatory effect obtained with saturating concentrations of L-glutamate. Graphs were plotted with the % maximal stimulatory using XLfit, a curve fitting program that iteratively plots the data using Levenburg Marquardt algorithm. The single site competition analysis equation used was y=A+((B−A)/(1+((x/C)D))), where y is the % maximal stimulatory effect, A is the minimum y, B is the maximum y, C is the EC50, x is the log 10 of the concentration of the competing compound and D is the slope of the curve (the Hill Coefficient). From these curves the EC50 (concentration at which half maximal stimulation was achieved), the Hill coefficient as well as the maximal response in % of the maximal stimulatory effect obtained with saturating concentrations of L-glutamate were calculated.
A depression of the signal observed after addition of the EC20 concentration of L-glutamate was indicative of an inhibitory activity of the test compound.

T1 sequence (P41594 21-1180 isoform P41594-2 limits assumed): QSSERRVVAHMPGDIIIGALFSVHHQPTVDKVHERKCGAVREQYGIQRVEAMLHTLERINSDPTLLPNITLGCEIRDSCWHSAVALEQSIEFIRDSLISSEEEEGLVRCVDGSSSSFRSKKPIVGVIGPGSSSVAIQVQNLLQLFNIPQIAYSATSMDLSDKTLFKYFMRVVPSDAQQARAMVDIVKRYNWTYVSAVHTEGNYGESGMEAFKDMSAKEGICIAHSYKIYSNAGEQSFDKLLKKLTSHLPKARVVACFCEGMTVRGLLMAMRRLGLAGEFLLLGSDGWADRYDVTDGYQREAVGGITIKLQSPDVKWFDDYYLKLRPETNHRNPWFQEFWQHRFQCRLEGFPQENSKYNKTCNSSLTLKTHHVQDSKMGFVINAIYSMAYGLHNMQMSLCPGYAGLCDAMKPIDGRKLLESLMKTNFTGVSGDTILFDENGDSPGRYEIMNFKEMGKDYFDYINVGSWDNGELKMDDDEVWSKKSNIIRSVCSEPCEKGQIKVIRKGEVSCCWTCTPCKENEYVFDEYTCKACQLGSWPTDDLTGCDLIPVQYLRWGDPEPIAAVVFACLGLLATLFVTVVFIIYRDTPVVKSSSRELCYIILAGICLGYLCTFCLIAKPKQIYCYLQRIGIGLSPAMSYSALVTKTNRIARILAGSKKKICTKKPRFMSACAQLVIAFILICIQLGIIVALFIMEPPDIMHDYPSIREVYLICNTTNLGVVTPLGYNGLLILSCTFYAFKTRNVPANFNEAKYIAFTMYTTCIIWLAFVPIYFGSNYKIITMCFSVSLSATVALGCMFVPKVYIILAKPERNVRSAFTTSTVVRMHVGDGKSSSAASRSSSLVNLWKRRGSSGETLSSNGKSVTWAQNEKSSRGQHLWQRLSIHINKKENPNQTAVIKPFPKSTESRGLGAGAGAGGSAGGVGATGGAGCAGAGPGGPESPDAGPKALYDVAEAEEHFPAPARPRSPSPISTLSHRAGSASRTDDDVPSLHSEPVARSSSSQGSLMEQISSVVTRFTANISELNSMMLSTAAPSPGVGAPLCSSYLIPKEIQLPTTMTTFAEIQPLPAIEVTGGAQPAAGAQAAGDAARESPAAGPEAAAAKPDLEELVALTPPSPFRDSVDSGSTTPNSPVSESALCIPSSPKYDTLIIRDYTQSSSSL

Turning to `CC1(C)CC(Nc2ncc(C#Cc3ccccc3)cn2)CCO1` (racemic) [Example 3, rac-(2,2-Dimethyl-tetrahydro-pyran-4-yl)-(5-phenylethynyl-pyrimidin-2-yl)-amine], the Emax turned out to be 89% and the EC50 came out at 172 nM.
For `O=C1OCCCN1Cc1ccc(C#Cc2ccccc2)cn1` [Example 34, 3-(5-Phenylethynyl-pyridin-2-ylmethyl)-[1,3]oxazinan-2-one], the Emax stood at 119% and the EC50 amounted to 174 nM.
`OC1CCC(Oc2ncc(C#Cc3ccccc3)cn2)CC1` (racemic) [Example 22, rac-4-(5-Phenylethynyl-pyrimidin-2-yloxy)-cyclohexanol]: the Emax was determined as 121% and the 50% effective concentration (EC50) turned out to be 168 nM.
For the compound `C(#Cc1cnc(NCC2CCOCC2)nc1)c1ccccc1` [Example 20, (5-Phenylethynyl-pyrimidin-2-yl)-(tetrahydro-pyran-4-ylmethyl)-amine], the Emax is 80% and the half-maximal effective concentration (EC50) was determined as 206 nM.
For `CN1CCN(Cc2ccc(C#Cc3ccccc3)cn2)C1=O` [Example 35, 1-Methyl-3-(5-phenylethynyl-pyridin-2-ylmethyl)-imidazolidin-2-one], in that order: 119% and 68 nM.
For `C(#Cc1cnc(N[C@H]2C[C@@H]3CC[C@H]2O3)nc1)c1ccccc1` (racemic) [Example 4, rac-7-Oxa-bicyclo[2.2.1]hept-2-yl-(5-phenylethynyl-pyrimidin-2-yl)-amine], the Emax stood at 113% and the EC50 was found to be 195 nM.
For `O=C1OCCN1Cc1ncc(C#Cc2ccccc2)cn1` [Example 42, 3-(5-Phenylethynyl-pyrimidin-2-ylmethyl)-oxazolidin-2-one], the Emax stood at 120% and the EC50 amounted to 631 nM.
As for `C(#Cc1ccc(NC2CCOCC2)nc1)c1ccccc1` [Example 14, (5-Phenylethynyl-pyridin-2-yl)-(tetrahydro-pyran-4-yl)-amine], the Emax amounted to 59% and the EC50 came out at 110 nM.
On the same counts, the results for `O=C1COCCN1Cc1ccc(C#Cc2ccccc2)cn1` [Example 30, 4-(5-Phenylethynyl-pyridin-2-ylmethyl)-morpholin-3-one] are 121% and 83 nM.
